From patent US20230026167A1, “COSMETIC OR DERMATOLOGICAL COMPOSITION ACTING IN PARTICULAR ON THE EFFECTS OF BLUE LIGHT ON SKIN AND ITS APPENDAGES, AND ASSOCIATED USES” (Sederma, priority 2019, published 2023)
* marks the point of attachment. Palmitoyl = CCCCCCCCCCCCCCCC(=O)*

System: IL-6
Experiment: Synergy test: IL-6 production on HK following blue light irradiation (ELISA)
Type: cell-based, human
Conditions: blue light 30.2 J/cm2, 24 hours contact, compound taken separately, nsd
Method: HK are cultivated in their culture medium. After rinsing with PBS, the cells are returned to this same buffer and exposed to blue light at a non-cytotoxic dose of 30.2 J/cm^2. The exhibition system consists of a set of 30 blue LEDs spread over a 30 cm^2 flat surface. The photon flux reaches the cells perpendicularly. The temperature is controlled, and all the cells are in the same enclosure (37° C./5% CO2). The emission spectrum is centered on 420 nm. The cells are then brought into contact with each of the invention compounds taken separately or with the composition according to the invention for 24 hours. The culture media are then harvested, and the IL-6 concentrations assayed by ELISA method. An assay on the cell layers is used to reduce to the number of cells.

O=c1cc(-c2ccccc2)oc2cc(O)cc(O)c12 [Chrysine, 5,7-dihydroxyflavone]
% of variation in IL-6 production (1.6 ppm): −10%

Palmitoyl-GQPR-OH [Pal-GQPR]
% of variation in IL-6 production (15 ppm): −7%
